The test relates to polymerized actin in lysate of NIH 3T3 EF cells. The test can be described thus: Measurement of polymerized actin in the steady state (STAFI) and Kobs in cellular lysate by static fluorescence polarization. To be noted: NIH 3T3 EF lysate. Format: biochemical, murine. The text has this: The result of the test is a plateau fluorescence anisotropy value (<<STAFI>>) corresponding to the quantity of polymerized actin in the steady state and an apparent constant (Kobs) for actin polymerization resulting from the progressive incorporation of marked actin monomers over time until attainment of the steady state, that is the plateau of the curve.
By use of the GraphPad Prism® version 3 Software (GraphPad Software, Inc., San Diego, Calif.), for biostatistics, curve fitting, and scientific graphing, the experimental data are used to generate a curve adjusted to a 1st order equation such that: Y=ΔmA max(1−e^−k·t) where
The technique of fluorescence polarization, also called static fluorescence anisotropy enables the obtaining of a value dependent on the size of the fluorescent molecule and the number of fluorescent molecular complexes. […] The level of this plateau, called <<STAFI>> reflects the quantity of F at the steady state, that is, the […], and the speed of reaching the plateau depends on the rapidity with which these filaments are formed. […]
At the time of the test, the solution of marked actin monomers is diluted to 1/3 in G solution. The apparatus used is a Beacon® 2000 Fluorescence Polarization System (Invitrogen Corporation, Carlsbad, Calif.) fluorescence polarization spectrometer. […]

Consider `C/C1=C\[C@H](C)C[C@H](C)OC(=O)C[C@H](c2ccc(O)cc2)NC(=O)[C@@H](Cc2c(Br)[nH]c3ccccc23)N(C)C(=O)[C@H](C)NC(=O)[C@@H](C)C1` [Jasplakinolide], for which, for the setting “10 μM jasplakinolide added to polymerization medium, initial value 35 mA, NIH 3T3 65 mA”, the “delta mA max (STAFI, fluorescence anisotropy value at the plateau)” value was 66 mA. For the setting “jasplakinolide added, NIH 3T3 EF alone 0.04, NIH 3T3 0.086”, the “Kobs (apparent constant of actin polymerization)” value amounted to 0.15.

The values above are taken from patent US7491505B2, “Method for analyzing tumor aggressivity comprising measurement of polymerized actin” (Bioalliance Pharma, priority 2002, dated 2009).
